Test results from patent publication US10189826B2, “Heterocyclic compounds and methods of use” (Medivation Technologies LLC, priority 2015, dated 2019).
Structures can show the parent of a compound that is named as a salt. Where two headings read alike, the source gives them in different places.

Experiments:
Format in all cases: cell-based
[1] = system: SREBP-2 transcriptional activity (SREBP2 cleavage) in HepG2_LSSprom cells; assay: Luciferase reporter driven by a SREBP-2 specific promoter in HepG2_LSSprom cells; conditions: for IC50: read-out: SREBP2 Cleavage (IC50 μM) 24 h; for SREBP2 Cleavage (5 μM) (% Inh): medium without FBS
How it was run: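 HepG2_LSSprom cells dosed at 0.625-10 μM in serum-free medium for 6 h (or 24 h), then luciferase luminescence read. Signal normalized to vehicle (100%); IC50 by four-parameter nonlinear fit; five independent experiments, triplicate wells.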

HepG2_LSSprom cells = assay: Cytotoxicity assay (LDH release) in HepG2_LSSprom cells; conditions: for Cytotoxicity (5 μM) %: LDH release relative to lysis control
How it was run: (§1)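 HepG2_LSSprom cells exposed to compound at 0.625–10 μM in serum-free medium for 6 h or 24 h. Medium LDH measured colorimetrically at 490 nm; release expressed as % of lysis control after vehicle subtraction, negatives set to 0; five independent experiments, triplicate wells, mean±SEM.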

[2] = system: SREBP2 cleavage in HEPG2 cells; assay: SREBP2 cleavage in HEPG2 cells (Western blot normalized to actin); conditions: 20 μM, 1 day, DMEM without FBS
Experimental: Average SREBP2 cleavage in HEPG2 cells was measured in the presence of compounds disclosed in Table 1. HepG2 cells were seeded at 500,000 cells per well in 6-well plates in DMEM supplemented with 10% FBS. After 2 days, cells were treated with compounds (20 μM) for 1 day in DMEM without FBS. Western blots were normalized with respect to actin.

HepG2 cells = assay: Cell viability in HepG2 cells (MTS); conditions: 20 μM, 3 days, DMEM without FBS
Experimental: For viability measurements, HepG2 cells were seeded at 5,000 cells per well in 96-well plates in DMEM supplemented with 10% FBS. After 1 day in culture, cells were treated with compounds (20 μM) for 3 days in DMEM without FBS. Viability was measured by MTS. Treatment with compounds was carried out in medium without FBS, and viability was measured by MTS.

[3] = Cytotoxicity assay (LDH release) in HepG2_LSSprom cells; conditions: human, HepG2 LSSprom cells, 24 h treatment, LDH release
How it was run: as §1

[4] = 24 h, 24 h treatment, HepG2_LSSprom cells

| Compound | IC50 [1, 4] [µM] | IC50 at 24 h [3] [µM] | further results |
| --- | --- | --- | --- |
| CC1(N)CCCN(C(=O)c2ccc(-c3cc(-c4ccnc(C(C)(C)C)c4)cs3)c(Cl)c2)C1 (single isomer, unassigned) [Compound 95b] | – | – | IC50 ([1]; 24 h treatment, HepG2_LSSprom cells): 0.65 µM; IC50 (HepG2_LSSprom cells; 24 h treatment, LDH release): > 10 µM |
| CCCc1cc(-c2nc(-c3ccc(C(=O)N(C)C)cc3)cs2)ccn1 [Compound 2, N,N-dimethyl-4-[2-(2-propylpyridin-4-yl)-1,3-thiazol-4-yl]benzamide] | – | – | Average SREBP2 cleavage (% Inhibition, n = 3) [2]: 73.85 % Inhibition; Average Viability (% Inhibition, n = 3) (HepG2 cells): 30.73 % Inhibition |
| CCCc1cc(-c2nc(-c3ccc(C(N)=O)cc3)cs2)ccn1 [Compound 3, 4-[2-(2-propylpyridin-4-yl)-1,3-thiazol-4-yl]benzamide] | – | – | Average SREBP2 cleavage (% Inhibition, n = 3) [2]: 12.18 % Inhibition; Average Viability (% Inhibition, n = 3) (HepG2 cells): 19.52 % Inhibition |
| O=C(c1ccc(-c2csc(-c3cccc4[nH]ccc34)n2)c(Cl)c1)N1CCCCC1 [Compound 4, [3-chloro-4-[2-(1H-indol-4-yl)thiazol-4-yl]phenyl]-(1-piperidyl)methanone] | – | – | SREBP2 Cleavage (5 μM) (% Inh) ([1]; HepG2_LSSprom cells): 48 % Inh; Cytotoxicity (5 μM) % (HepG2_LSSprom cells): 1% |
| CC(C)(C)c1cc(-c2nc(-c3ccc(C(=O)N4CCCCC4)cc3Cl)cs2)ccn1 [Compound 5, 2-tert-butyl-4-{4-[2-chloro-4-(piperidine-1-carbonyl)phenyl]-1,3-thiazol-2-yl}pyridine] | – | – | SREBP2 Cleavage (5 μM) (% Inh) ([1]; HepG2_LSSprom cells): 71 % Inh; Cytotoxicity (5 μM) % (HepG2_LSSprom cells): 4% |
| CN(C)C(=O)c1ccc(-c2csc(-c3cccc4[nH]ccc34)n2)c(Cl)c1 [Compound 6, 3-chloro-4-[2-(1H-indol-4-yl)-1,3-thiazol-4-yl]-N,N-dimethylbenzamide] | – | – | SREBP2 Cleavage (5 μM) (% Inh) ([1]; HepG2_LSSprom cells): 41 % Inh; Cytotoxicity (5 μM) % (HepG2_LSSprom cells): 0% |
| CN(C)C(=O)c1ccc(-c2csc(-c3ccnc(N4CCCCC4)c3)n2)c(Cl)c1 [Compound 9, 3-chloro-N,N-dimethyl-4-{2-[2-(piperidin-1-yl)pyridin-4-yl]-1,3-thiazol-4-yl}benzamide] | – | – | SREBP2 Cleavage (5 μM) (% Inh) ([1]; HepG2_LSSprom cells): 52 % Inh; Cytotoxicity (5 μM) % (HepG2_LSSprom cells): 1% |
| CC(C)(C)c1cc(-c2csc(-c3ccc(C(=O)N4CCCC(N5CCNC5=O)C4)cc3Cl)c2)ccn1 (stereo not shown) [Compound 94, 1-[1-{4-[4-(2-tert-butylpyridin-4-yl)thiophen-2-yl]-3-chlorobenzoyl}piperidin-3-yl]imidazolidin-2-one] | 0.52 | > 10 | – |
| CC1(N)CCCN(C(=O)c2ccc(-c3cc(-c4ccnc(C(C)(C)C)c4)cs3)c(Cl)c2)C1 (stereo not shown) [Compound 95, 1-{4-[4-(2-tert-butylpyridin-4-yl)thiophen-2-yl]-3-chlorobenzoyl}-3-methylpiperidin-3-amine] | 0.42 | > 10 | – |
| CC(C)(C)c1cc(-c2csc(-c3ccc(C(=O)N4CC[C@@H](N)C4)cc3Cl)c2)ccn1 [Compound 96a, (3R)-1-{4-[4-(2-tert-butylpyridin-4-yl)thiophen-2-yl]-3-chlorobenzoyl}pyrrolidin-3-amine] | 1.4 | > 10 | – |
| CC(C)(C)c1cc(-c2csc(-c3ccc(C(=O)N4CC[C@H](N)C4)cc3Cl)c2)ccn1 [Compound 96b, (3S)-1-{4-[4-(2-tert-butylpyridin-4-yl)thiophen-2-yl]-3-chlorobenzoyl}pyrrolidin-3-amine] | 0.6 | > 10 | – |
| CC(C)(C)c1cc(-c2csc(-c3ccc(C(=O)N4CCCc5ncccc54)cc3Cl)c2)ccn1 [Compound 97, 1-{4-[4-(2-tert-butylpyridin-4-yl)thiophen-2-yl]-3-chlorobenzoyl}-1,2,3,4-tetrahydro-1,5-naphthyridine] | 0.17 | > 3 | – |
| CC(C)(C)c1cc(-c2nc(-c3ccc(C(=O)N4CCC(O)CC4)cc3Cl)c[nH]2)ccn1 [Compound 98, 1-{4-[2-(2-tert-butylpyridin-4-yl)-1H-imidazol-4-yl]-3-chlorobenzoyl}piperidin-4-ol] | – | > 10 | IC50 ([1]; 24 h): 0.99 µM |
| COC1CCCN(C(=O)c2ccc(-c3cc(-c4ccnc(C(C)(C)C)c4)cs3)c(Cl)c2)C1 (stereo not shown) [Compound 99, 2-tert-butyl-4-{5-[2-chloro-4-(3-methoxypiperidine-1-carbonyl)phenyl]thiophen-3-yl}pyridine] | – | > 10 | IC50 ([1]; 24 h): 0.051 µM |
| CC1(O)CCN(C(=O)c2ccc(-c3cc(-c4ccnc(C(C)(C)C)c4)cs3)c(Cl)c2)CC1 [Compound 100, 1-{4-[4-(2-tert-butylpyridin-4-yl)thiophen-2-yl]-3-chlorobenzoyl}-4-methylpiperidin-4-ol] | 0.74 | > 10 | – |
| CC(C)(C)c1cc(-c2csc(-c3ccc(C(=O)N4CCC[C@](C)(O)C4)cc3Cl)c2)ccn1 [Compound 101a, [4-[4-(2-tert-butyl-4-pyridyl)-2-thienyl]-3-chloro-phenyl]-[(3S)-3-hydroxy-3-methyl-1-piperidyl] methanone hydrochloride] | 0.15 | > 10 | – |
| CC(C)(C)c1cc(-c2csc(-c3ccc(C(=O)N4CCC[C@](C)(O)C4)cc3Cl)c2)ccn1 [Compound 101b, (3S)-1-{4-[4-(2-tert-butylpyridin-4-yl)thiophen-2-yl]-3-chlorobenzoyl}-3-methylpiperidin-3-ol] | 0.025 | > 10 | – |
| CC(C)CCn1nccc1-c1cc(-c2ccc(C(=O)N3CCOCC3)cc2Cl)cs1 [Compound 102, [3-chloro-4-[5-(2-isopentylpyrazol-3-yl)-3-thienyl]phenyl]-morpholino-methanone] | 0.44 | > 10 | – |
| CC(C)CCn1nccc1-c1cc(-c2ccc(C(=O)N3CCC(F)(F)CC3)cc2Cl)cs1 [Compound 103, [3-chloro-4-[5-(2-isopentylpyrazol-3-yl)-3-thienyl]phenyl]-(4,4-difluoro-1-piperidyl)methanone] | 0.69 | > 10 | – |
| CC(C)CCn1nccc1-c1csc(-c2ccc(C(=O)N3CCCC(O)C3)cc2Cl)c1 (stereo not shown) [Compound 104, [3-chloro-4-[4-(2-isopentylpyrazol-3-yl)-2-thienyl]phenyl]-(3-hydroxy-1-piperidyl)methanone] | 0.13 | > 10 | – |
